Data taken from patent US20130303378A1, “Biocide Compositions Comprising Esters Of Ethoxylated Alcohols” (priority 2010, published 2013).

Tests used:
[1] = test system: barley powdery mildew; assay: Protective greenhouse trial with Amistar (Azoxystrobin SC 250) plus adjuvant against barley powdery mildew; assay type: in vivo, barley powdery mildew on barley; settings: azoxystrobin 5 g/ha, adjuvant 50 ml/ha, leaf segments cut 5 h after application, incubation 10 d after inoculation
Description: Opus SC125, a commercial available pesticide sold by BASF, was tested to control barley powdery mildew (BPM) in a curative greenhouse trial, Azoxystrobin SC 250 in a protective trial. In each case, barley was cultivated in a substrate “Frustorder Erde” for three weeks. Each treatment was replicated 14 times. The adjuvant dose rate in each treatment was 50 ml/ha. 5 h after application with the equivalent of 5 g/ha azoxystrobin, leaf segments were cut off at a length of 7 cm from the stem. The leaves of the F and F-1 leaf were placed on agar. After the inoculation, the incubation time was 10 d. The assessment of the infection rate was conducted by a trained biologist.

[2] = test system: barley powdery mildew (Blumeria graminis f. sp. hordei); assay: Curative greenhouse trial with Opus SC125 plus adjuvant against barley powdery mildew; assay type: in vivo, Blumeria graminis f. sp. hordei on barley; settings: Opus 10 g/ha, adjuvant 50 ml/ha, inoculation 2 days prior to application, assessment 14 DAT, mildew pustules per leaf
Description: Opus SC125, a commercial available pesticide sold by BASF, was tested to control barley powdery mildew (BPM) in a curative greenhouse trial, Azoxystrobin SC 250 in a protective trial. In each case, barley was cultivated in a substrate “Frustorder Erde” for three weeks. Each treatment was replicated 14 times. The adjuvant dose rate in each treatment was 50 ml/ha.
Inoculation of the leaves with powdery mildew (Blumeria graminis f. sp. hordei) was done 2 days prior to application to test Opus' curative action. From the stem, leaf segments were cut off with a length of 10 cm using the flag leaf (F) and 2nd leaf (F-1). Altogether, the leaves of each stem were placed on benzimidazol agar i.e. 0.5% Agar with 40 ppm benzimidazol. The concentration of Opus for the leaf application was 10 g/ha. Assessment 14 days after treatment (14 DAT) of the efficacy against powdery mildew was done by counting the mildew pustules per leaf on a length of 7 cm. The assessment of the infection rate was conducted by a trained biologist.

[3] = test system: barley powdery mildew; assay: Performance in both trials together (curative Opus and protective Amistar); assay type: in vivo, barley powdery mildew on barley; settings: for Sum of infection rates: sum of OPUS and AMISTAR infection rates; for adjuvancy effect considering the performance in both trials: assessment in words, Opus and Amistar trials
Description: Opus SC125, a commercial available pesticide sold by BASF, was tested to control barley powdery mildew (BPM) in a curative greenhouse trial, Azoxystrobin SC 250 in a protective trial. In each case, barley was cultivated in a substrate “Frustorder Erde” for three weeks. Each treatment was replicated 14 times. The adjuvant dose rate in each treatment was 50 ml/ha. Inoculation of the leaves with powdery mildew (Blumeria graminis f. sp. hordei) was done 2 days prior to application to test Opus' curative action. From the stem, leaf segments were cut off with a length of 10 cm using the flag leaf (F) and 2nd leaf (F-1). Altogether, the leaves of each stem were placed on benzimidazol agar i.e. 0.5% Agar with 40 ppm benzimidazol. The concentration of Opus for the leaf application was 10 g/ha. […] The assessment of the infection rate was conducted by a trained biologist. 5 h after application with the equivalent of 5 g/ha azoxystrobin, leaf segments were cut off at a length of 7 cm from the stem. The leaves of the F and F-1 leaf were placed on agar. After the inoculation, the incubation time was 10 d. The assessment of the infection rate was conducted by a trained biologist.

Substance	Infection rate of barley powdery mildew after treatment with fungicides, AMISTAR [1]	Infection rate of barley powdery mildew after treatment with fungicides, OPUS [2]	Sum of infection rates [3]	adjuvancy effect considering the performance in both trials [3]
C12/14 + 10EO-C8/10 Ester [Example C3]	2%	29%	31%	
Decyl + 10EO-C8/10 Ester [Example 4]	0%	22%	22%	
Decyl + 20EO-C8/10 Ester [Example 5]	12%	11%	23%	
Isoamyl + 20EO oleate [Example 1]	0%	7%	7%	best adjuvancy effect
Isoamyl + 20EO laurate [Example 2]	0%	12%	12%	
Isoamyl + 10EO laurate [Example 3]	14%	4%	18%	
Isodecyl + 6EO-C8/10 Ester [Example C1]	5%	21%	26%	
C12/14 + 5EO-C8/10 Ester [Example C2]	3%	24%	27%	
C12/14 + 20EO-C8/10 Ester [Example C4]	18%	15%	33%	
Isoamyl + 5EO oleate [Example C5]	17%	17%	34%	does not give acceptable results
